Assay results: ChEMBL document CHEMBL1153710, “Synthesis, stereochemistry and antimicrobial studies of novel oxime ethers of aza/diazabicycles” (2009)
In brackets after ≈: the same amount, converted by molar mass.

Columns and labels:
Klebsiella pneumoniae = assay: Antibacterial activity against Klebsiella pneumoniae by twofold serial dilution method; type: functional
Staphylococcus aureus = assay: Antibacterial activity against Staphylococcus aureus by twofold serial dilution method; type: functional
Rhizopus = assay: Antifungal activity against Rhizopus sp. by twofold serial dilution method; type: functional
Escherichia coli = assay: Antibacterial activity against Escherichia coli by twofold serial dilution method; type: functional
Aspergillus flavus = assay: Antifungal activity against Aspergillus flavus by twofold serial dilution method; type: functional
Candida albicans = assay: Antifungal activity against Candida albicans by twofold serial dilution method; type: functional
Candida = assay: Antifungal activity against Candida 51 by twofold serial dilution method; type: functional
Salmonella enterica = assay: Antibacterial activity against Salmonella typhi by twofold serial dilution method; type: functional, Salmonella enterica subsp. enterica serovar Typhi
Aspergillus niger = assay: Antifungal activity against Aspergillus niger by twofold serial dilution method; type: functional
Pseudomonas aeruginosa = assay: Antibacterial activity against Pseudomonas aeruginosa by twofold serial dilution method; type: functional

Compound	MIC (Klebsiella pneumoniae)	MIC (Staphylococcus aureus)	MIC (Rhizopus)	MIC (Escherichia coli)	MIC (Aspergillus flavus)	MIC (Candida albicans)	MIC (Candida)	MIC (Salmonella enterica)	MIC (Aspergillus niger)	MIC (Pseudomonas aeruginosa)
Clc1ccccc1C1NC(c2ccccc2Cl)C2CCCC1C2=NOCc1ccccc1 (configuration not stated)	50 mg/L (≈ 107 µM)	12.5 mg/L (≈ 26.9 µM)	50 mg/L (≈ 107 µM)	12.5 mg/L (≈ 26.9 µM)	12.5 mg/L (≈ 26.9 µM)	12.5 mg/L (≈ 26.9 µM)	6.25 mg/L (≈ 13.4 µM)	50 mg/L (≈ 107 µM)	50 mg/L (≈ 107 µM)	6.25 mg/L (≈ 13.4 µM)
c1ccc(CON=C2C3CCCC2C(c2ccccc2)NC3c2ccccc2)cc1 (configuration not stated)	> 200 mg/L	> 200 mg/L	> 200 mg/L	100 mg/L (≈ 252 µM)	200 mg/L (≈ 504 µM)	100 mg/L (≈ 252 µM)	200 mg/L (≈ 504 µM)	200 mg/L (≈ 504 µM)	> 200 mg/L	200 mg/L (≈ 504 µM)
Fc1cccc(C2NC(c3cccc(F)c3)C3CCCC2C3=NOCc2ccccc2)c1 (configuration not stated)	100 mg/L (≈ 231 µM)	100 mg/L (≈ 231 µM)	50 mg/L (≈ 116 µM)	25 mg/L (≈ 57.8 µM)	100 mg/L (≈ 231 µM)	50 mg/L (≈ 116 µM)	200 mg/L (≈ 462 µM)	100 mg/L (≈ 231 µM)	100 mg/L (≈ 231 µM)	25 mg/L (≈ 57.8 µM)
Fc1ccc(C2NC(c3ccc(F)cc3)C3CCCC2C3=NOCc2ccccc2)cc1 (configuration not stated)	50 mg/L (≈ 116 µM)	100 mg/L (≈ 231 µM)	50 mg/L (≈ 116 µM)	25 mg/L (≈ 57.8 µM)	100 mg/L (≈ 231 µM)	25 mg/L (≈ 57.8 µM)	100 mg/L (≈ 231 µM)	50 mg/L (≈ 116 µM)	50 mg/L (≈ 116 µM)	25 mg/L (≈ 57.8 µM)
Clc1ccc(C2NC(c3ccc(Cl)cc3)C3CCCC2C3=NOCc2ccccc2)cc1 (configuration not stated)	100 mg/L (≈ 215 µM)	25 mg/L (≈ 53.7 µM)	12.5 mg/L (≈ 26.9 µM)	50 mg/L (≈ 107 µM)	50 mg/L (≈ 107 µM)	25 mg/L (≈ 53.7 µM)	50 mg/L (≈ 107 µM)	25 mg/L (≈ 53.7 µM)	25 mg/L (≈ 53.7 µM)	12.5 mg/L (≈ 26.9 µM)
Cc1ccc(C2NC(c3ccc(C)cc3)C3CCCC2C3=NOCc2ccccc2)cc1 (configuration not stated)	200 mg/L (≈ 471 µM)	25 mg/L (≈ 58.9 µM)	25 mg/L (≈ 58.9 µM)	100 mg/L (≈ 236 µM)	100 mg/L (≈ 236 µM)	50 mg/L (≈ 118 µM)	100 mg/L (≈ 236 µM)	100 mg/L (≈ 236 µM)	100 mg/L (≈ 236 µM)	25 mg/L (≈ 58.9 µM)
COc1ccc(C2NC(c3ccc(OC)cc3)C3CCCC2C3=NOCc2ccccc2)cc1 (configuration not stated)	100 mg/L (≈ 219 µM)	100 mg/L (≈ 219 µM)	50 mg/L (≈ 110 µM)	50 mg/L (≈ 110 µM)	100 mg/L (≈ 219 µM)	50 mg/L (≈ 110 µM)	50 mg/L (≈ 110 µM)	50 mg/L (≈ 110 µM)	100 mg/L (≈ 219 µM)	50 mg/L (≈ 110 µM)
CN1C(c2ccccc2)C2CCCC(C2=NOCc2ccccc2)C1c1ccccc1 (configuration not stated)	200 mg/L (≈ 487 µM)	200 mg/L (≈ 487 µM)	50 mg/L (≈ 122 µM)	100 mg/L (≈ 244 µM)	> 200 mg/L	50 mg/L (≈ 122 µM)	200 mg/L (≈ 487 µM)	100 mg/L (≈ 244 µM)	200 mg/L (≈ 487 µM)	100 mg/L (≈ 244 µM)
C[C@@H]1[C@H](O)[C@@H](C)/C=C/C=C/C=C/C=C/C=C/C=C/C=C/[C@H](O[C@@H]2O[C@H](C)[C@@H](O)[C@H](N)[C@@H]2O)C[C@@H]2O[C@](O)(C[C@@H](O)C[C@@H](O)[C@H](O)CC[C@@H](O)C[C@@H](O)CC(=O)O[C@H]1C)C[C@H](O)[C@H]2C(=O)O [AMPHOTERICIN B]	–	–	25 mg/L (≈ 27.1 µM)	–	50 mg/L (≈ 54.1 µM)	25 mg/L (≈ 27.1 µM)	25 mg/L (≈ 27.1 µM)	–	50 mg/L (≈ 54.1 µM)	–
O=C(O)c1cn(C2CC2)c2cc(N3CCNCC3)c(F)cc2c1=O [CIPROFLOXACIN]	–	–	–	25 mg/L (≈ 75.4 µM)	–	–	–	50 mg/L (≈ 151 µM)	–	–
